Several values for one entry are separate records, joined by “and”; a condition that tells them apart may be missing. Equal entries are not always repeated.
Assays:
[1] = Disulfide cleavage by glutathione (GSH), LC/MS; format: physicochemical; details: 15 uM compound, 4 mM GSH, pH 7.0, 37 C
Procedure: (§1) For disulfide cleavage determination, the compounds were incubated at 15 μM with 0.2 mM cysteine or 4 mM GSH in 100 mM Tris buffer pH 7.0 containing 5% methanol at 37° C. Aliquots were taken at specified time points and the samples were analyzed by LC/MS on Sciex TripleTOF 5600 on a Hypersil Gold C18 column (100×2.1, 1.9 Thermo Scientific). The column was eluted by a gradient of buffer A (0.1% formic acid in 10 mM ammonium acetate) to buffer B (0.1% formic acid in 10 mM ammonium acetate in 90% acetonitrile), 5% B 0-0.5 min, 5-25% B 0.5-8 min, 25-75% B 8-13 min, and 75-95% B 13-13.5 min, 95% B 13.5-14.5 min, 95-5% B 14.5-15 min at 0.4 mL/min. All products were separated and characterized by LC/MS/MS in a positive ESI ion mode. All analytes had the protonated molecular MH+ as the major species with little source fragmentation. Full scan accurate mass peak areas were used to estimate relative abundance of each component.

[2] = tested on: Igrov-1; assay: CellTiter-Glo toxicity, 4 days (Example 9); format: cell-based; details: Homo sapiens, IGROV-1, 96 h, 4 days of drug incubation; Table 7A
Procedure: (§2) The toxicity of various PBD monomer disulfide prodrugs and PBD dimer disulfide prodrugs was evaluated on UACC-257, Igrov-1 and A2058 cell lines. Cells were seeded in 384-well plate and treated with drug 24 hours later. After 4 days of drug incubation, the cell viability was determined using Promega CellTiter-Glo luminescent reagent, which measures ATP level (an indirect measure of cell number). The luminescent intensity was measured on PerkinElmer Envision reader. The relative cell viability was calculated by normalizing to non-drug treatment control and was graphed using KleidaGraph software package. IC50 value was determined as the concentration to obtain 50% of the maximum cell killing.

[3] = tested on: UACC-257; assay: CellTiter-Glo toxicity, 4 days (Example 9); format: cell-based; details: Homo sapiens, UACC-257, 96 h, 4 days of drug incubation; Table 7A
Procedure: as §2

[4] = tested on: A2058; assay: CellTiter-Glo toxicity, 4 days (Example 9); format: cell-based; details: Homo sapiens, A2058, 96 h, 4 days of drug incubation; Table 7A
Procedure: as §2

[5] = Disulfide cleavage by cysteine, LC/MS; format: physicochemical; details: 15 uM compound, 0.2 mM cysteine, pH 7.0, 37 C
Procedure: as §1

Row | Compound | % Remaining at 24 h by GSH [1] [%] | IC50 [2] [nM] | IC50 [3] [nM] | IC50 [4] [nM] | % Remaining at 24 h by Cys [5] | % Remaining at 4 h by Cys ([5]; 4 h) [%]
1 | C=C1C[C@H]2C(O)N(C(=O)OC[C@@H](C)SSC(C)(C)C)c3cc(OC)c(OC)cc3C(=O)N2C1 (some centres unmarked) [PBD monomer disulfide prodrug 13] | 98.8 | > 10000 | > 10000 | > 10000 | 99.9% | –
2 | C=C1C[C@H]2C(O)N(C(=O)OCC3(SSCC(=O)O)CCC3)c3cc(OC)c(OC)cc3C(=O)N2C1 (some centres unmarked) [PBD monomer disulfide prodrug 9] | 1 | 1050 | 2110 | 292 | 81.1% | –
3 | C=C1C[C@H]2C(O)N(C(=O)OCc3ccc(SSC(C)C)cc3)c3cc(OC)c(OC)cc3C(=O)N2C1 (some centres unmarked) [PBD monomer disulfide prodrug 19] | 0 | 77.4 | 147 | 37.7 | 4.4% | –
4 | C=C1C[C@H]2C(O)N(C(=O)OCC3(SSC(C)C)CC3)c3cc(OC)c(OC)cc3C(=O)N2C1 (some centres unmarked) [PBD monomer disulfide prodrug 7] | 89.7 | > 30000 | > 30000 | 11000 | 96.1% | –
5 | C=C1C[C@H]2C(O)N(C(=O)OCC3(SSCC)CCCCC3)c3cc(OC)c(OC)cc3C(=O)N2C1 (some centres unmarked) [PBD monomer disulfide prodrug 18] | 18.7 | – | – | – | 75.3% | –
6 | C=C1C[C@H]2C(O)N(C(=O)OCC(COC)SSC(C)C)c3cc(OC)c(OC)cc3C(=O)N2C1 (some centres unmarked) [PBD monomer disulfide prodrug 21] | 0 | – | – | – | 74.7% | –
7 | C=C1C[C@H]2C(O)N(C(=O)OCC(C)(C)SSCC)c3cc(OC)c(OC)cc3C(=O)N2C1 (some centres unmarked) [PBD monomer disulfide prodrug 14] | 3 | – | – | – | 68.1% | –
8 | C=C1C[C@H]2C(O)N(C(=O)OC[C@@H](C)SSC3CCOCC3)c3cc(OC)c(OC)cc3C(=O)N2C1 (some centres unmarked) [PBD monomer disulfide prodrug 24] | 0 | 1480 | 2690 | 596 | 0.1% | –
9 | C=C1C[C@H]2C(O)N(C(=O)OCCSSC3CCCC3)c3cc(OC)c(OC)cc3C(=O)N2C1 (some centres unmarked) [PBD monomer disulfide prodrug 28] | 0 | 2300 | 2100 | 920 | 62.2% | –
10 | C=C1C[C@H]2C(O)N(C(=O)OCC(C)(C)SSC(C)C)c3cc(OC)c(OC)cc3C(=O)N2C1 (some centres unmarked) [PBD monomer disulfide prodrug 10] | 88.5 | 4810 | 4730 | 1830 | 99.4% | –
11 | C=C1C[C@H]2C(O)N(C(=O)OCCSSC(C)(C)C)c3cc(OC)c(OC)cc3C(=O)N2C1 (some centres unmarked) [PBD monomer disulfide prodrug 16] | 73.2 | 18500 | 19500 | 5590 | 98.6% | –
12 | C=C1C[C@H]2C(O)N(C(=O)OCC3(SSCC)CC3)c3cc(OC)c(OC)cc3C(=O)N2C1 (some centres unmarked) [PBD monomer disulfide prodrug 17] | 0 | – | – | – | 34.9% | –
13 | C=C1C[C@H]2C(O)N(C(=O)OC[C@@H](C)SSC(C)C)c3cc(OC)c(OC)cc3C(=O)N2C1 (some centres unmarked) [PBD monomer disulfide prodrug 15] | – | 928 | 1500 | 304 | 99.2% and 90.8% | –
14 | C=C1C[C@H]2C(O)N(C(=O)OCCSSCCC(=O)O)c3cc(OC)c(OC)cc3C(=O)N2C1 (some centres unmarked) [PBD monomer disulfide prodrug 27] | 0 | 958 | 939 | 261 | – | –
15 | C=C1C[C@H]2C(O)N(C(=O)OCC(CN(C)C)SSC(C)C)c3cc(OC)c(OC)cc3C(=O)N2C1 (some centres unmarked) [PBD monomer disulfide prodrug 20] | 0 | – | – | – | 0% | 34
